# Source: patent publication US9493426B2, “Quinazolinone derivatives useful as FGFR kinase modulators” (priority 2013, dated 2016)
# Target: T1, FGFR3 (Homo sapiens, UniProt P22607)
# T1 construct: purchased DiscoveRx Corporation
# Experiment: Enzyme binding assay (KINOMEscan) FGFR3
# Conditions: pKd = -log Kd (M), read-out: FGFR3_pKd (converted)
# Experimental: (§1) Enzyme Binding Assays (KINOMEscan®)
# (§2) Kinase enzyme binding affinities of compounds disclosed herein were determined using the KINOMEscan® technology performed by DiscoveRx Corporation, San Diego, Calif., USA (www.kinomescan.com).
row,Compound,Kd
1,COc1cc(OC)c(F)c(N(CCNC(C)C)c2ccc3ncn(-c4cnn(C)c4)c(=O)c3c2)c1F [Compound 19],5.01e-09 M
2,COc1cc(OC)cc(N(CCO)c2ccc3ncn(-c4ccccc4)c(=O)c3c2)c1 [Compound 7],> 1e-06 M

# Target: T2, Ba/F3-KDR-transfected cells (Homo sapiens, UniProt P35968, cells depend on it, form not given)
# T2 construct: BAF3-KDR (MIN IL3 pIC50); other: minus IL3; 24 hours, Alamar Blue
# Experiment: Ba/F3-KDR (minus IL3 or plus IL3) cellular proliferation assay
# Format: cell-based
# Conditions: 24 hours, Alamar Blue
# Experimental: Ba/F3-KDR (Minus IL3 or Plus IL3) (Cellular Proliferation Assay)
# (§3) In a 384 well plate, 100 nl of compound dilution in DMSO was sprayed before adding 50 μl cell culture medium (phenol red free RPMI-1640, 10% FBS, 2 mM L-Glutamine and 50 μg/ml Gentamycin) containing 20000 cells per well of Ba/F3-KDR-transfected cells. Cells were put in an incubator at 37° C. and 5% CO2. After 24 hours, 10 μl of Alamar Blue solution (0.5 mM K3Fe(CN)6, 0.5 mM K4Fe(CN)6, 0.15 mM Resazurin and 100 mM Phosphate Buffer) was added to the wells, incubated for 4 hours at 37° C. and 5% CO2 before RFU's (Relative Fluorescence Units) (ex. 540 nm., em. 590 nm.) were measured in a fluorescence plate reader.
# (§4) In this assay, the inhibitory effect of different compound concentrations (range 10 μM to 0.1 nM) was determined and used to calculate an IC50 (M) and pIC50 (−log IC50) value. As a counterscreen the same experiment was performed in the presence of 10 ng/ml murine IL3.
row,Compound,BAF3-KDR (MIN IL3 pIC50)
1,COc1cc(OC)c(F)c(N(CCNC(C)C)c2ccc3ncn(-c4cnn(C)c4)c(=O)c3c2)c1F [Compound 19],6.2
2,COc1cc(OC)cc(N(CCO)c2ccc3ncn(-c4ccccc4)c(=O)c3c2)c1 [Compound 7],<5
3,COc1cc(OC)c(Cl)c(N(CCO)c2ccc3ncn(-c4ccccc4)c(=O)c3c2)c1Cl [Compound 5],<5

# Target: T3, VEGFR2 (Homo sapiens, UniProt P35968)
# T3 construct: purchased DiscoveRx Corporation
# Experiment: Enzyme binding assay (KINOMEscan) VEGFR2
# Conditions: pKd = -log Kd (M), read-out: VEGFR2_pKd (converted)
# Experimental: as §1, §2
# T3 sequence (P35968 20-1356): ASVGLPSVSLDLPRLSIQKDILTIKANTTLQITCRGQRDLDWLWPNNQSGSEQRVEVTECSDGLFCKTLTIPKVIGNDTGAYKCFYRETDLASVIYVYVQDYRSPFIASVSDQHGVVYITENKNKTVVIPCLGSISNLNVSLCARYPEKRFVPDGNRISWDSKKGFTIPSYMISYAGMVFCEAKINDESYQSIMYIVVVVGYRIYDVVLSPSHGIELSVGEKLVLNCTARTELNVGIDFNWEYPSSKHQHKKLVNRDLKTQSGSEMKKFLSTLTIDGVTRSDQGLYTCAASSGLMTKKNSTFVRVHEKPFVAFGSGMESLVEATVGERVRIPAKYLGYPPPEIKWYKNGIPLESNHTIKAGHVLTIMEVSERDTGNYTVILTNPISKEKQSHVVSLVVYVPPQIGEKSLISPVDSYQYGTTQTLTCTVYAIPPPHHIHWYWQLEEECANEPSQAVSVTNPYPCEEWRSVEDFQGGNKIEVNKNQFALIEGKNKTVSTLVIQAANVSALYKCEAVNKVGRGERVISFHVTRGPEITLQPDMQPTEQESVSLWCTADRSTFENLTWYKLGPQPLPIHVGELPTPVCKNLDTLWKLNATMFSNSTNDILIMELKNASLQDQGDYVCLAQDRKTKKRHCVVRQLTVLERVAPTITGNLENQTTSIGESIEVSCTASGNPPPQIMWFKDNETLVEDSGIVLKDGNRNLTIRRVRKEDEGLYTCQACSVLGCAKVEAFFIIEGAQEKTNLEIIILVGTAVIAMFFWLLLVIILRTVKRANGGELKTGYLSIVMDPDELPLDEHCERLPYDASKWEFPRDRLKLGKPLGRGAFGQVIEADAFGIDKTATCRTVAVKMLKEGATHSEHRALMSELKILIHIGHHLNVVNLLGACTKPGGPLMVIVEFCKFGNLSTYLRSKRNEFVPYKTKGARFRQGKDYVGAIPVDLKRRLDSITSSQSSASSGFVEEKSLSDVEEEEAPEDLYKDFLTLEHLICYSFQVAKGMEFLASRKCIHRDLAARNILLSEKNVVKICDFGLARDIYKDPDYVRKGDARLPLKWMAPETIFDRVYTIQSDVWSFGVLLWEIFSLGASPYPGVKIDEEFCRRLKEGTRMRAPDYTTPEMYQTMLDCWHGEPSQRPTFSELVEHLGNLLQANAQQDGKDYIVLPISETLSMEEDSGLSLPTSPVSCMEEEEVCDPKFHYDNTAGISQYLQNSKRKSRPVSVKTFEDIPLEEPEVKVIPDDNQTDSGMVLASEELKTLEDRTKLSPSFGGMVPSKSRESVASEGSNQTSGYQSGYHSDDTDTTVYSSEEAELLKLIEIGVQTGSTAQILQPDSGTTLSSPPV
row,Compound,Kd
1,COc1cc(OC)c(F)c(N(CCNC(C)C)c2ccc3ncn(-c4cnn(C)c4)c(=O)c3c2)c1F [Compound 19],1.58e-08 M
2,COc1cc(OC)cc(N(CCO)c2ccc3ncn(-c4ccccc4)c(=O)c3c2)c1 [Compound 7],> 1e-06 M

# Target: FGFR3 (h) (Homo sapiens, UniProt P22607)
# Experiment: FGFR3 (enzymatic assay), TR-FRET
# Format: biochemical
# Conditions: 25 μM ATP; pIC50 = -log IC50 (M); read-out: FGFR3 pIC50 (converted)
row,Compound,IC50
1,COc1cc(OC)c(F)c(N(CCNC(C)C)c2ccc3ncn(-c4cnn(C)c4)c(=O)c3c2)c1F [Compound 19],1.58e-08 M
2,COc1cc(OC)cc(N(CCO)c2ccc3ncn(-c4ccccc4)c(=O)c3c2)c1 [Compound 7],3.16e-07 M
3,COc1cc(OC)c(Cl)c(N(CCO)c2ccc3ncn(-c4ccccc4)c(=O)c3c2)c1Cl [Compound 5],2.51e-08 M

# Target: T4, Ba/F3-FGFR1-transfected cells (Homo sapiens, UniProt P11362)
# T4 construct: other: minus IL3; 24 hours, Alamar Blue
# Experiment: Ba/F3-FGFR1 (minus IL3 or plus IL3) cellular proliferation assay
# Format: cell-based
# Conditions: 24 hours, Alamar Blue
# Experimental: Ba/F3-FGFR1 (Minus IL3 or Plus IL3) (Cellular Proliferation Assay)
# as §3, with “Ba/F3-FGFR1-transfected” for “Ba/F3-KDR-transfected”
# as §4
row,Compound,BAF3-FGFR1 (MIN IL3 pIC50)
1,COc1cc(OC)c(F)c(N(CCNC(C)C)c2ccc3ncn(-c4cnn(C)c4)c(=O)c3c2)c1F [Compound 19],8.8
2,COc1cc(OC)cc(N(CCO)c2ccc3ncn(-c4ccccc4)c(=O)c3c2)c1 [Compound 7],<5
3,COc1cc(OC)c(Cl)c(N(CCO)c2ccc3ncn(-c4ccccc4)c(=O)c3c2)c1Cl [Compound 5],5.5

# Target: FGFR1 (h) (Homo sapiens, UniProt P11362)
# Experiment: FGFR1 (enzymatic assay), TR-FRET
# Format: biochemical
# Conditions: not given
# FGFR1 (h), sequence (P11362 22-822): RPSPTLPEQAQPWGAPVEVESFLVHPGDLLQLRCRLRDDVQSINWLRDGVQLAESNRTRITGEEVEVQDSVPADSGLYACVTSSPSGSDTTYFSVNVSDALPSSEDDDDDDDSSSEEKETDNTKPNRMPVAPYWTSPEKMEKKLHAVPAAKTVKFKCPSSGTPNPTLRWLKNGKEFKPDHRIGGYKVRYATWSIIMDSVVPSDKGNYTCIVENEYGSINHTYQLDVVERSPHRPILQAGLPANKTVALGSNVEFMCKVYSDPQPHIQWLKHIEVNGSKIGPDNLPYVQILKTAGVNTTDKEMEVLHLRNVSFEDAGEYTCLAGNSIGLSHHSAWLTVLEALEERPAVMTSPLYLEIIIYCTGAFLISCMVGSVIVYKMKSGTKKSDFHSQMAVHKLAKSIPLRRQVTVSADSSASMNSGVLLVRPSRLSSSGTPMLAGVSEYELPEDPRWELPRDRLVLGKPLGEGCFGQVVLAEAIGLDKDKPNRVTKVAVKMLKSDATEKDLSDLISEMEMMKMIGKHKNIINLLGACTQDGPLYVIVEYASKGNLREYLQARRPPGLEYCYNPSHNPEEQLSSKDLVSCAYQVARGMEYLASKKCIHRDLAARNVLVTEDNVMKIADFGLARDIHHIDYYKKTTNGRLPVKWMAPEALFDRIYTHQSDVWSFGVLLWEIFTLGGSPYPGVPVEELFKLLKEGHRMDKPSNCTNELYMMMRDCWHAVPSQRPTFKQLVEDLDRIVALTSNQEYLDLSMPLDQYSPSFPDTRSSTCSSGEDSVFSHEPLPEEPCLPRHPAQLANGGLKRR
row,Compound,IC50
1,COc1cc(OC)c(F)c(N(CCNC(C)C)c2ccc3ncn(-c4cnn(C)c4)c(=O)c3c2)c1F [Compound 19],5.01 nM
2,COc1cc(OC)cc(N(CCO)c2ccc3ncn(-c4ccccc4)c(=O)c3c2)c1 [Compound 7],631 nM
3,COc1cc(OC)c(Cl)c(N(CCO)c2ccc3ncn(-c4ccccc4)c(=O)c3c2)c1Cl [Compound 5],63.1 nM

# Target: T5, FGFR1 (Homo sapiens, UniProt P11362)
# T5 construct: purchased DiscoveRx Corporation
# Experiment: Enzyme binding assay (KINOMEscan) FGFR1
# Conditions: FGFR1_pKd, pKd = -log Kd (M)
# Experimental: as §1, §2
# T5 sequence (P11362 22-822): as above
row,Compound,Kd
1,COc1cc(OC)c(F)c(N(CCNC(C)C)c2ccc3ncn(-c4cnn(C)c4)c(=O)c3c2)c1F [Compound 19],1.58e-09 M
2,COc1cc(OC)cc(N(CCO)c2ccc3ncn(-c4ccccc4)c(=O)c3c2)c1 [Compound 7],> 1e-06 M

# Target: FGFR4 (h) (Homo sapiens, UniProt P22455)
# Experiment: FGFR4 (enzymatic assay), TR-FRET
# Format: biochemical
# Conditions: 5 μM ATP; pIC50 = -log IC50 (M); read-out: FGFR 4 pIC50 (converted)
row,Compound,IC50
1,COc1cc(OC)c(F)c(N(CCNC(C)C)c2ccc3ncn(-c4cnn(C)c4)c(=O)c3c2)c1F [Compound 19],2e-08 M
2,COc1cc(OC)cc(N(CCO)c2ccc3ncn(-c4ccccc4)c(=O)c3c2)c1 [Compound 7],3.98e-06 M
3,COc1cc(OC)c(Cl)c(N(CCO)c2ccc3ncn(-c4ccccc4)c(=O)c3c2)c1Cl [Compound 5],5.01e-07 M

# Target: KDR (h) (Homo sapiens, UniProt P35968)
# Experiment: KDR (VEGFR2) (enzymatic assay), TR-FRET
# Format: biochemical
# Conditions: 3 μM ATP; pIC50 = -log IC50 (M); read-out: VEGFR KDR pIC50 (converted)
# Experimental: KDR (VEGFR2) (Enzymatic Assay)
# In a final reaction volume of 30 μL, KDR (h) (150 ng/ml) was incubated with 50 mM HEPES pH 7.5, 6 mM MnCl2, 1 mM DTT, 0.1 mM Na3VO4, 0.01% Triton-X-100, 500 nM Btn-Flt3 and 3 μM ATP in the presence of compound (1% DMSO final). After incubation for 120 minutes at room temperature the reaction was stopped with 2.27 nM EU-anti P-Tyr, 7 mM EDTA, 31.25 nM SA-XL-665 and 0.02% BSA which was present for 60 minutes at room temperature. Time-Resolved Fluorescence Resonance Energy Transfer (TR-FRET) signal (ex340 nm. Em 620 nm, em 655 nm) was measured afterwards and results are expressed in RFU (Relative Fluorescence Units). In this assay, the inhibitory effect of different compound concentrations (range 10 μM to 0.1 nM) was determined and used to calculate an IC50 (M) and pIC50 (−log IC50) value.
# KDR (h), sequence (P35968 20-1356): as the sequence (P35968 20-1356) above
row,Compound,IC50
1,COc1cc(OC)c(F)c(N(CCNC(C)C)c2ccc3ncn(-c4cnn(C)c4)c(=O)c3c2)c1F [Compound 19],1.26e-07 M
2,COc1cc(OC)cc(N(CCO)c2ccc3ncn(-c4ccccc4)c(=O)c3c2)c1 [Compound 7],> 1e-06 M
3,COc1cc(OC)c(Cl)c(N(CCO)c2ccc3ncn(-c4ccccc4)c(=O)c3c2)c1Cl [Compound 5],~1e-06 M

# Target: T6, FGFR2 (Homo sapiens, UniProt P21802)
# T6 construct: purchased DiscoveRx Corporation
# Experiment: Enzyme binding assay (KINOMEscan) FGFR2
# Conditions: pKd = -log Kd (M), read-out: FGFR2_pKd (converted)
# Experimental: as §1, §2
# T6 sequence (P21802 22-821): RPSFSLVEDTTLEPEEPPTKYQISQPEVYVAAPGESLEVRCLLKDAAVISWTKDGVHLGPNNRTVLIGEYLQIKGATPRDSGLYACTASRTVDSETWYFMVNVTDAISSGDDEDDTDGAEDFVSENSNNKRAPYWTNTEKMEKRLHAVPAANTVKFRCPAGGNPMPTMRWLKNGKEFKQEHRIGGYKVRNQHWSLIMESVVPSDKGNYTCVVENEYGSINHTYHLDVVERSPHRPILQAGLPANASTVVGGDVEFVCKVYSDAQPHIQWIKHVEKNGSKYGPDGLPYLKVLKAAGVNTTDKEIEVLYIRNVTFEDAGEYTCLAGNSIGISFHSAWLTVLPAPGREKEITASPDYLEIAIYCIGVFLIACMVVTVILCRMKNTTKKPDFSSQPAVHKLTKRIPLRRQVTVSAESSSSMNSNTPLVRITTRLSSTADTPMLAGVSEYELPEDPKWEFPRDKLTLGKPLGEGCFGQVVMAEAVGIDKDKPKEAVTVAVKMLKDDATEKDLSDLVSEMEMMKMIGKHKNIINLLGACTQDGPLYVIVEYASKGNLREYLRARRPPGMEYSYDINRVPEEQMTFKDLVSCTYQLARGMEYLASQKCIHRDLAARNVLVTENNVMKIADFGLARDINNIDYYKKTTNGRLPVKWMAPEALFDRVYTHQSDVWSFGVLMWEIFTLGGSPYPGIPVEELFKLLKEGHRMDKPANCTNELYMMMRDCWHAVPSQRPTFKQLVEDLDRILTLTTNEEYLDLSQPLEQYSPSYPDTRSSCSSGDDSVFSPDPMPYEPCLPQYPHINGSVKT
row,Compound,Kd
1,COc1cc(OC)c(F)c(N(CCNC(C)C)c2ccc3ncn(-c4cnn(C)c4)c(=O)c3c2)c1F [Compound 19],5.01e-09 M
2,COc1cc(OC)cc(N(CCO)c2ccc3ncn(-c4ccccc4)c(=O)c3c2)c1 [Compound 7],> 1e-06 M

# Target: Ba/F3-FGFR4-transfected cells (Homo sapiens, UniProt P22455, cells depend on it, form not given)
# Experiment: Ba/F3-FGFR4 cellular proliferation assay
# Format: cell-based
# Conditions: 24 hours, Alamar Blue
# Experimental: Ba/F3-FGFR4 (Cellular Proliferation Assay)
# as §3, with “Ba/F3-FGFR4-transfected” for “Ba/F3-KDR-transfected”
# In this assay, the inhibitory effect of different compound concentrations (range 10 μM to 0.1 nM) was determined and used to calculate an IC50 (M) and pIC50 (−log IC50) value.
# Ba/F3-FGFR4-transfected cells, sequence (P22455 whole entry, looked up, change not shown): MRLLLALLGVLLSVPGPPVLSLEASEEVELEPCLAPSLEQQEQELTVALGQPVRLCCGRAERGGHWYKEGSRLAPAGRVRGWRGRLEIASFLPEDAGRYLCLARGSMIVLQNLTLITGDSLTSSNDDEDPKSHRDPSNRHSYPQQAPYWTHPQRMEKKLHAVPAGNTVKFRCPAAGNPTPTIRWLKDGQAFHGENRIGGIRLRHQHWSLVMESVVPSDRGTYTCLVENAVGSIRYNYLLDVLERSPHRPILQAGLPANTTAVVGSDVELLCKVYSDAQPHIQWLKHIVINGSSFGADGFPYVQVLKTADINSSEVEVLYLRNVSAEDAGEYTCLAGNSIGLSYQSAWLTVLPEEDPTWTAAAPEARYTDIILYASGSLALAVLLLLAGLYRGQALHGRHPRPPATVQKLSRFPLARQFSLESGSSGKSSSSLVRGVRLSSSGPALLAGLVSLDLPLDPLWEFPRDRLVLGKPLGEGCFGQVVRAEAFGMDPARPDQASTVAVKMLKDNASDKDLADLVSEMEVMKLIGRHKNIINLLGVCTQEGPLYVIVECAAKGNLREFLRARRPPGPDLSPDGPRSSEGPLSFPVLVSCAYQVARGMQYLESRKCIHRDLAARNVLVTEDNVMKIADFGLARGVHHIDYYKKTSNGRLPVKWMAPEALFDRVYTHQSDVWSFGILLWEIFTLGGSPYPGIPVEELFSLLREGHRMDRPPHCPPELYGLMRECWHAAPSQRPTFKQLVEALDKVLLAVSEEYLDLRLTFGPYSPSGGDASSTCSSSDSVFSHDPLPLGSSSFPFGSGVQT
row,Compound,BAF3-FGFR4 (pIC50)
1,COc1cc(OC)c(F)c(N(CCNC(C)C)c2ccc3ncn(-c4cnn(C)c4)c(=O)c3c2)c1F [Compound 19],8.2
2,COc1cc(OC)cc(N(CCO)c2ccc3ncn(-c4ccccc4)c(=O)c3c2)c1 [Compound 7],<5
3,COc1cc(OC)c(Cl)c(N(CCO)c2ccc3ncn(-c4ccccc4)c(=O)c3c2)c1Cl [Compound 5],<5

# System: not given
# Experiment: not given
# Conditions: not given
row,Compound,melting point
1,COc1cc(OC)c(F)c(N(CCNC(C)C)c2ccc3ncn(-c4cnn(C)c4)c(=O)c3c2)c1F [Compound 19],162 °C
2,COc1cc(OC)cc(N(CCO)c2ccc3ncn(-c4ccccc4)c(=O)c3c2)c1 [Compound 7],171 °C
3,COc1cc(OC)c(Cl)c(N(CCO)c2ccc3ncn(-c4ccccc4)c(=O)c3c2)c1Cl [Compound 5],251 °C

# Target: T7, FGFR4 (Homo sapiens, UniProt P22455)
# T7 construct: purchased DiscoveRx Corporation
# Experiment: Enzyme binding assay (KINOMEscan) FGFR4
# Conditions: pKd = -log Kd (M), read-out: FGFR4_pKd (converted)
# Experimental: as §1, §2
row,Compound,Kd
1,COc1cc(OC)c(F)c(N(CCNC(C)C)c2ccc3ncn(-c4cnn(C)c4)c(=O)c3c2)c1F [Compound 19],5.01e-09 M
2,COc1cc(OC)cc(N(CCO)c2ccc3ncn(-c4ccccc4)c(=O)c3c2)c1 [Compound 7],> 1e-06 M

# Target: T8, Ba/F3-FGFR3-transfected cells (Homo sapiens, UniProt P22607, cells depend on it, form not given)
# T8 construct: BAF3-FGFR3 (MIN IL3 pIC50); other: minus IL3; 24 hours, Alamar Blue
# Experiment: Ba/F3-FGFR3 (minus IL3 or plus IL3) cellular proliferation assay
# Format: cell-based
# Conditions: 24 hours, Alamar Blue
# Experimental: Ba/F3-FGFR3 (Minus IL3 or Plus IL3) (Cellular Proliferation Assay)
# as §3, with “Ba/F3-FGFR3-transfected” for “Ba/F3-KDR-transfected”
# as §4
# T8 sequence (P22607 whole entry, looked up, change not shown): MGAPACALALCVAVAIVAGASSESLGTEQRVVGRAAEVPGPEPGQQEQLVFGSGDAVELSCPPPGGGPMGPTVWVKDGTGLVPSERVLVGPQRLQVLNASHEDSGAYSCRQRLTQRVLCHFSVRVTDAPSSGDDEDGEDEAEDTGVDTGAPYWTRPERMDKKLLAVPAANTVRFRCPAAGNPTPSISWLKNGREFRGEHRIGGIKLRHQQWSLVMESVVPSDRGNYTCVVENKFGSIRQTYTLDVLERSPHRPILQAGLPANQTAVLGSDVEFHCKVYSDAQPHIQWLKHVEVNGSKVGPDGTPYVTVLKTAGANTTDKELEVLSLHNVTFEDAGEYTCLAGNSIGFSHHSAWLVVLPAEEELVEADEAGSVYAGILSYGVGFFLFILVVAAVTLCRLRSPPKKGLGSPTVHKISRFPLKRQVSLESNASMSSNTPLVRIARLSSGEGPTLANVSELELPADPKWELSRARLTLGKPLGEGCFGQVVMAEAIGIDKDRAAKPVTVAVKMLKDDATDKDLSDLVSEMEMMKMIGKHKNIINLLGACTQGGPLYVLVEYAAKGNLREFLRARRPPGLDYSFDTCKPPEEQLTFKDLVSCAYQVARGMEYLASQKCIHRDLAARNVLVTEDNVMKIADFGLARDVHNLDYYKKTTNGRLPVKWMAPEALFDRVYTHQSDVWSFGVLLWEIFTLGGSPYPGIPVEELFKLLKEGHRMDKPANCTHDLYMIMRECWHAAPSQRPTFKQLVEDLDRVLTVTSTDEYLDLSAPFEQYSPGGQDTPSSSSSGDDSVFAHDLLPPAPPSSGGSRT
row,Compound,BAF3-FGFR3 (MIN IL3 pIC50)
1,COc1cc(OC)c(F)c(N(CCNC(C)C)c2ccc3ncn(-c4cnn(C)c4)c(=O)c3c2)c1F [Compound 19],8.6
2,COc1cc(OC)cc(N(CCO)c2ccc3ncn(-c4ccccc4)c(=O)c3c2)c1 [Compound 7],<5
3,COc1cc(OC)c(Cl)c(N(CCO)c2ccc3ncn(-c4ccccc4)c(=O)c3c2)c1Cl [Compound 5],5.3

# Target: FGFR2 (h) (Homo sapiens, UniProt P21802)
# Experiment: FGFR2 (enzymatic assay), TR-FRET
# Format: biochemical
# Conditions: 0.4 μM ATP; pIC50 = -log IC50 (M); read-out: FGFR 2 pIC50 (converted)
# FGFR2 (h), sequence (P21802 22-821): as the sequence (P21802 22-821) above
row,Compound,IC50
1,COc1cc(OC)c(F)c(N(CCNC(C)C)c2ccc3ncn(-c4cnn(C)c4)c(=O)c3c2)c1F [Compound 19],1.58e-08 M
2,COc1cc(OC)cc(N(CCO)c2ccc3ncn(-c4ccccc4)c(=O)c3c2)c1 [Compound 7],3.98e-07 M
3,COc1cc(OC)c(Cl)c(N(CCO)c2ccc3ncn(-c4ccccc4)c(=O)c3c2)c1Cl [Compound 5],3.98e-08 M
